In patent US9309187B2, “EP2 receptor agonists” (TAKEDA GMBH, priority 2012, dated 2016):

Assays:
[1] = test system: total leukocyte and neutrophil counts in bronchoalveolar lavage fluid; assay: In vivo assay: LPS-induced pulmonary inflammation model in rats; set-up: species or system Sprague Dawley rats; conditions: Rattus norvegicus, po; p.o. 1 h prior to LPS aerosol; BAL cell counts 4 h after LPS
Procedure: In Vivo Assay: LPS-Induced Pulmonary Inflammation Model in Rats
Exposure of rats to aerosolised lipopolysaccharide (LPS) causes a pulmonary mainly neutrophilic inflammation, which can be assessed by bronchoalveolar lavage (BAL). LPS-induced pulmonary inflammation models are robust and are commonly used for the evaluation of test compounds modulating the immediate immune response. Selective EP2 agonists are administered per oral 1 h prior nose-only LPS challenge in rats. The anti-inflammatory activity of the selective EP2 agonists is assessed based on pulmonary total leukocyte and neutrophil counts in the bronchoalveolar lavage fluid 4 h after LPS exposure.
Male Sprague Dawley rats weighing 250-300 g were used. Rats were delivered 1 week prior to the experiments and hadfree access to water and food.
The test compound was mixed with 1.33% polyethylenglycol 400 (PEG400, Merck, Darmstadt, Germany) and subsequently suspended in 2% methocel solution (hypromellose, Sigma, Steinheim, Germany) containing Antifoam C Emulsion (Sigma, Steinheim, Germany, 0.1 mL/15 mL) using a mixing device (ULTRA-TURRAX T8 basic, VDI12, VWR International GmbH). The aimed doses were prepared by dilution series from the stock suspension, which was prepared for the administration of the highest dose in each experiment.
(§1) The administered volume of the compound suspension was 10 mL/kg. On day of the experiment the rat body weights were documented to calculate the volume to be administered. LPS challenged and unchallenged control animals received compound-free vehicle solution as placebo. Test compounds and vehicle were administered by oral gavage 1 h prior to LPS challenge.
Conscious and restrained animals were connected to a nose-only exposure system (CR equipment SA, Tannay, Switzerland) and were exposed to the LPS aerosol for 30 min. The LPS-containing aerosol was generated using a compressed air driven medication nebulizer device (Pari LC Sprint Star, Pari GmbH, Starnberg, Germany). The LPS solution (E. coli, Serotype 055B5, Sigma-Aldrich, 1 mg/ml diluted in PBS) was prepared 30 minutes in advance. The aerosol was dispersed and transported to the exposure tower by a sheath air flow of 6001/h. All rats except negative controls were exposed to LPS.
4 hours after LPS challenge, animals were anesthetised by isoflurane and scarified by cervical dislocation. BALs were performed. For the BAL the trachea was exposed and cannulated, followed by gently lavaging the lungs two times in situ with 4 ml PBS buffer supplemented with 0.5% Bovine Serum Albumin (Serve, Darmstadt, Germany).
Determination of total leukocyte and neutrophil counts in BALF was performed with an automated leukocyte differentiation system (XT-2000iV, Sysmex, Norderstedt, Germany).
The baseline correction was done for each sample according to the formula: baseline-corrected cell count value=cell count−median (negative control group)
Suppression of LPS-induced total cell and neutrophil influx into the lungs was calculated in % using the medians of the cell counts of each treatment group in relation to the control groups according to the formula: % effect=(Y−K)/K*100 • With defining: • Y=median of the baseline-corrected compound treated group • K=median of the baseline-corrected vehicle treated group
Statistical analysis was performed on the primary cell count data using One-Way ANOVA and Dunnett's Multiple Comparison test vs. positive control.

[2] = test system: plasma TNFα after i.v. LPS; assay: In vivo assay: LPS-induced TNFα release in mice; set-up: species or system C57BL/6 mice; conditions: Mus musculus; p.o. 1 h prior to i.v. LPS 100 μg/kg; plasma TNFα 1 h after LPS
Procedure: In Vivo Assay: LPS-Induced TNFα Release in Mice
Intravenously administration of lipopolysaccharide (LPS) causes a systemic inflammation characterised by release of pro-inflammatory cytokines, e.g. tumor necrosis factor alpha (TNFα). Selective EP2 agonists are administered per oral 1 h prior intravenously LPS challenge in mice. The anti-inflammatory activity of the selective EP2 agonists is assessed based on TNFα levels in blood plasma 1 h after LPS challenge.
Female C57BL/6 mice weighing 20-25 g were used. Mice were delivered 1 week prior to the experiments and had free access to water and food.
The test compound was mixed with 1.33% polyethylenglycol 400 (PEG400, Merck, Darmstadt, Germany) and subsequently suspended in 2% methocel solution (hypromellose, Sigma, Steinheim, Germany) using the Covaris S2X System (K Biosciences Ltd.; Hoddesdon; United Kingdom). The aimed doses were prepared by dilution series from the stock suspension, which was prepared for the administration of the highest dose in each experiment.
as §1, with “is” for “was”, “mouse” for “rat”, “challenged” for “challenged and unchallenged”, “drug-free” for “compound-free”
LPS (from Escherichia coli 055:B5, Sigma, Steinheim, Germany) was solubilised in 0.9% sterile NaCl solution (B. Braun Melsungen AG, Melsungen, Germany) containing 0.1% hydroxylamine (Sigma, Steinheim, Germany). LPS is intravenously (i.v.) injected at a dose of 100 μg/kg (5 mL/kg b.w.) 1 h after compound or vehicle administration.
One hour after LPS-challenge, the animals were sacrificed by inhalative isoflurane anaesthesia and heparinised blood was obtained by retroorbital bleeding. Blood was centrifuged (21,000×g, 4° C., 10 min), and plasma samples were kept frozen at −20° C. until determination of TNFα levels by ELISA. TNFα was measured with a commercially available ELISA-Kit (Quantikine® Immunoassay Mouse TNFα, R&D Systems, Minneapolis, USA).
The compound effect on TNFα release was calculated individually in percent (%) for each compound treated animal in relation to the mean TNFα level of the vehicle treated LPS-challenged control group: % effect=(Y−K)/K*100 • with defining: • Y=plasma TNFα concentration of the compound treated animal • K=mean plasma TNFα concentration of the vehicle treated group
Statistical analysis was performed on the primary TNFα concentrations by One-Way ANOVA and Dunnett's Multiple Comparison test vs. vehicle-treated control group.

| Structure (SMILES) | ED50 [1] [mg/kg] | ED50 [2] [mg/kg] |
| --- | --- | --- |
| O=C(O)/C=C/c1ccc(Cl)c(NC(=O)c2cc(-c3ccccc3)cc3ccccc23)c1 [Example 3, (2E)-3-(4-chloro-3-{[(3-phenylnaphthalen-1-yl)carbonyl]amino}phenyl)prop-2-enoic acid] | 0.1 to 2 | 0.1 to 3 |
| O=C(O)/C=C/c1ccc(F)c(NC(=O)c2cc(-c3ccccc3F)cc3ccccc23)c1 [Example 9, (2E)-3-{3-[({3-[2-fluorophenyl]naphthalen-1-yl}carbonyl)amino]-4fluorophenyl}prop-2-enoic acid] | 0.1 to 2 | 0.1 to 3 |
| O=C(O)/C=C/c1ccc(F)c(NC(=O)c2cc(-c3cccc(F)c3)cc3ccccc23)c1 [Example 10, (2E)-3-{3-[({3-[3-fluorophenyl]naphthalen-1-yl}carbonyl)amino]-4fluorophenyl}prop-2-enoic acid] | 0.1 to 2 | 0.1 to 3 |
| O=C(O)/C=C/c1ccc(F)c(NC(=O)c2cc(-c3ccccc3)cc3ccccc23)c1 [Example 2, (2E)-3-(4-fluoro-3-{[(3-phenylnaphthalen-1-yl)carbonyl]amino}phenyl)prop-2-enoic acid] | 0.1 to 2 | 0.1 to 3 |
| O=C(O)/C=C/c1cccc(NC(=O)c2cc(-c3ccccc3)cc3ccccc23)c1 [Example 1, (2E)-3-(3-{[(3-phenylnaphthalen-1-yl)carbonyl]amino}phenyl)prop-2-enoic acid] | 0.1 to 2 | 0.1 to 3 |
